Columns and labels:
Test in all cases: relative viability (nuclei count vs DMSO), 5 days (fraction); higher = more cells survive
[1] = compound: C[C@@H](N)c1ccc(C(=O)Nc2ccnc3[nH]ccc23)cc1 + CS(=O)(=O)N1CCN(Cc2cc3nc(-c4cccc5[nH]ncc45)nc(N4CCOCC4)c3s2)CC1 [Pictilisib] (partner 1 µM)
Summary of the method: (§1)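 One day after seeding in 1536-well plates, lung cancer cell lines were dosed by pin tool. Dosing was either single-drug or a fixed anchor-drug dose plus five library-drug doses (not always all listed) in √10 steps. After 5 days, nuclei were stained in one fix-and-stain step and counted on 4× images, and relative viability is the nuclei count of treated wells over that of vehicle wells, given as the median of duplicate plates.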

[2] = compound: C1CNCCC1C2=CC(=NN2)C3=CC=NC=C3 + C[C@@H](Oc1cc(-c2cnn(C3CCNCC3)c2)cnc1N)c1c(Cl)ccc(F)c1Cl [Crizotinib] (partner 1 µM)
Summary of the method: as §1

[3] = compound: C1CNCCC1C2=CC(=NN2)C3=CC=NC=C3 + CC(=O)Nc1cccc(-n2c(=O)n(C3CC3)c(=O)c3c(Nc4ccc(I)cc4F)n(C)c(=O)c(C)c32)c1 [Trametinib] (partner 0.02 µM)
Summary of the method: as §1

[4] = compound: C[C@@H](N)c1ccc(C(=O)Nc2ccnc3[nH]ccc23)cc1 + O=C(c1cc(Cc2n[nH]c(=O)c3ccccc23)ccc1F)N1CCN(C(=O)C2CC2)CC1 [Olaparib] (partner 8 µM)
Summary of the method: as §1

Cell Line	relative viability ([1]; first compound 0.04 µM)	relative viability ([1]; first compound 0.1265 µM)	relative viability ([1]; first compound 0.4 µM)	relative viability ([1]; first compound 1.265 µM)	relative viability ([1]; first compound 4 µM)	relative viability ([2]; first compound 0.08 µM)	relative viability ([2]; first compound 0.8 µM)	relative viability ([2]; first compound 2.53 µM)	relative viability ([2]; first compound 8 µM)	relative viability ([3]; first compound 0.08 µM)	relative viability ([3]; first compound 0.8 µM)	relative viability ([3]; first compound 2.53 µM)	relative viability ([3]; first compound 8 µM)	relative viability ([4]; first compound 0.04 µM)	relative viability ([4]; first compound 0.1265 µM)	relative viability ([4]; first compound 0.4 µM)	relative viability ([4]; first compound 1.265 µM)	relative viability ([4]; first compound 4 µM)
SK-LU-1	0.589	0.621	0.549	0.608	0.544	1.03	0.936	0.989	0.947	0.449	0.445	0.541	0.528	0.459	0.446	0.436	0.321	0.376
LOU-NH91	0.517	0.517	0.562	0.398	0.549	0.718	0.733	0.78	0.742	0.778	0.769	0.841	0.766	0.824	0.911	0.875	0.74	0.593
LXF-289	0.943	0.779	0.928	0.872	0.683	0.842	0.88	0.801	0.837	0.658	0.768	0.653	0.706	1.12	1.05	1.16	1.23	0.901
NCI-H1299	0.874	0.921	0.973	0.892	0.678	0.991	1	0.99	0.9	–	–	–	–	0.91	0.987	0.933	0.878	0.767
HARA	0.634	0.517	0.432	0.475	0.292	1.05	1.08	1.05	1.03	0.616	0.709	0.762	1.09	1.02	0.907	1.32	0.966	0.819
LU99A	0.307	0.319	0.385	0.297	0.324	0.5	0.586	0.596	0.558	0.48	0.616	0.561	0.543	–	0.231	0.253	0.275	0.281
201T	0.702	0.636	0.685	0.519	0.788	1.01	1.01	1.02	0.991	0.712	0.731	0.753	0.675	0.867	0.883	0.818	0.895	0.949
HCC-827	1.22	1.27	1.12	0.978	0.783	0.979	0.932	1.01	0.883	0.524	0.5	0.599	0.601	–	0.764	0.834	0.739	0.542
NCI-H1666	0.527	0.407	0.498	0.476	0.728	0.762	0.935	0.989	0.902	0.749	0.87	0.979	0.915	0.786	0.764	0.856	0.825	0.906
NCI-H1915	1.15	0.92	0.925	–	0.837	0.88	0.906	0.855	0.909	0.289	0.298	0.3	0.299	–	0.229	0.26	–	0.216
NCI-H2009	0.77	0.768	0.886	0.22	0.753	0.96	1.08	1.08	1.03	0.248	0.257	0.376	0.298	0.657	0.666	0.611	0.595	0.547
ChaGo-K-1	0.777	0.937	0.988	–	0.696	0.926	1.15	1.08	1.09	0.916	0.85	0.897	0.807	0.418	0.426	0.414	0.438	0.345
COR-L 105	0.435	0.297	0.399	0.255	0.309	0.649	0.982	0.799	0.906	0.42	0.501	0.427	0.47	0.605	0.636	0.763	0.717	0.564
NCI-H2170	0.337	0.319	0.295	0.204	0.266	1.04	1.23	1.42	1.15	0.763	0.925	0.915	0.907	0.618	0.584	0.614	0.746	0.543
A549	0.596	0.526	0.597	0.525	0.428	0.784	0.849	0.857	0.797	–	–	–	–	0.303	0.251	0.575	0.0626	0.465
SW 1573	0.467	0.56	0.543	0.539	0.43	0.805	0.713	0.993	0.795	–	0.6	0.556	0.622	0.534	0.531	0.446	0.44	0.361
NCI-H1975	0.281	0.281	0.287	0.228	0.236	0.988	1.05	0.963	0.889	0.342	0.249	0.356	0.394	0.771	0.757	0.78	0.67	0.523
Calu-6	0.952	0.988	0.854	0.928	0.75	0.838	0.91	0.833	0.814	–	–	–	–	0.602	0.592	0.547	0.533	0.45
NCI-H1648	–	–	–	–	–	–	–	–	–	0.464	0.483	–	0.516	1.01	1.02	1.93	1.71	1.29
NCI-H3122	0.72	0.721	0.716	0.687	0.728	0.303	0.265	0.255	0.283	0.207	0.222	0.209	0.238	0.625	0.613	0.638	0.702	0.622
NCI-H2347	0.472	0.667	0.727	0.832	0.796	0.681	0.676	0.939	0.781	0.264	0.266	0.326	0.262	0.53	0.579	0.534	0.566	0.461

Cell Line	relative viability ([1]; first compound 0.04 µM)	relative viability ([1]; first compound 0.1265 µM)	relative viability ([1]; first compound 0.4 µM)	relative viability ([1]; first compound 1.265 µM)	relative viability ([1]; first compound 4 µM)	relative viability ([2]; first compound 0.08 µM)	relative viability ([2]; first compound 0.8 µM)	relative viability ([2]; first compound 2.53 µM)	relative viability ([2]; first compound 8 µM)	relative viability ([3]; first compound 0.08 µM)	relative viability ([3]; first compound 0.8 µM)	relative viability ([3]; first compound 2.53 µM)	relative viability ([3]; first compound 8 µM)	relative viability ([4]; first compound 0.04 µM)	relative viability ([4]; first compound 0.1265 µM)	relative viability ([4]; first compound 0.4 µM)	relative viability ([4]; first compound 1.265 µM)	relative viability ([4]; first compound 4 µM)
HCC-44	0.789	0.508	0.656	0.571	0.482	0.889	0.908	0.842	0.839	1.09	1.06	1.04	1.05	0.949	0.966	0.966	1.05	0.889
HCC-78	0.509	0.318	0.297	0.137	0.254	0.369	–	0.399	0.381	0.742	–	0.821	0.757	1.05	0.964	1.16	1.4	1.08
COR-L23	0.621	0.867	0.799	0.591	0.562	0.651	0.615	0.719	0.695	0.583	0.62	0.678	0.608	0.296	0.341	0.322	0.277	0.176
NCI-H1993	0.801	0.865	–	0.812	0.833	0.867	0.876	0.767	0.896	0.512	0.597	0.509	0.536	1.4	1.14	–	1.02	–
NCI-H2405	–	0.433	0.399	0.194	0.207	0.87	0.777	0.873	0.825	0.588	0.631	0.638	0.615	–	0.863	0.741	0.587	0.337
NCI-H2126	0.632	0.494	0.55	0.349	0.6	0.952	1.05	1.01	0.979	0.582	0.564	0.543	0.564	0.945	0.946	0.915	0.988	0.948
NCI-H1944	0.398	0.339	0.337	–	0.345	1.06	1.08	1.1	1.08	0.333	0.376	0.389	0.411	0.453	0.396	0.434	0.432	0.401
NCI-H2342	–	–	–	–	–	–	–	–	–	0.716	0.798	0.794	1.04	0.454	0.469	0.405	0.481	0.388
NCI-H358	0.339	0.31	0.33	0.289	0.326	0.479	0.526	0.633	0.474	0.12	0.128	0.136	0.169	0.625	0.628	0.69	0.696	0.479
NCI-H1734	0.475	0.474	0.461	–	0.353	0.663	0.687	0.653	0.654	0.531	0.708	0.668	0.667	0.642	0.591	0.652	0.559	0.45
A-427	0.658	0.766	0.66	–	0.793	0.874	0.93	0.944	0.846	0.748	0.857	0.779	0.874	0.698	0.817	0.762	0.589	0.649
ABC-1	0.804	0.832	1.07	0.484	0.769	0.988	1.12	1.04	1.18	–	–	–	–	0.511	0.752	0.942	0.953	0.693
NCI-H1563	0.691	0.661	0.638	0.578	0.688	0.644	0.766	0.85	0.941	–	–	–	–	–	–	–	–	–
NCI-H522	–	–	–	–	–	–	–	–	–	0.764	0.716	0.918	0.744	0.591	0.684	0.657	0.658	0.629
NCI-H1793	0.251	0.437	0.327	–	0.402	–	–	–	–	0.459	–	0.414	0.406	1.09	0.999	1.04	–	0.928
SW 900	–	–	–	–	–	–	–	–	–	0.751	–	0.901	0.836	1.03	0.918	1.21	0.883	1.08
EBC-1	0.38	0.408	0.347	0.473	0.593	0.202	0.219	0.233	0.192	–	–	–	–	0.847	0.713	0.678	0.683	0.583
IA-LM	0.456	0.484	0.752	0.676	0.835	0.842	0.839	1.14	0.92	–	–	–	–	0.824	0.996	0.914	1.11	0.914
NCI-H1703	0.235	0.247	0.205	0.234	0.197	0.823	0.813	0.824	1.01	–	–	–	–	0.374	0.476	0.348	–	0.463
NCI-H1395	0.566	0.626	0.655	–	0.627	–	–	–	–	0.905	0.992	0.966	1.16	0.473	0.511	0.406	–	0.393

— the supplement of paper PMC10307832
